Data on 14 compounds can be found in ChEMBL document CHEMBL3217421, “Truncated militarinone fragments identified by total chemical synthesis induce neurite outgrowth” (Medchemcomm, 2013).

What all share (type): functional, cell-based
The test system of test [1] is PC-12. Briefly: Neuritogenic activity in rat PC12 cells assessed as induction of neurite outgrowth at 20 uM after 3 days using Giemsa staining by microscopic analysis.
In test [2] the test system is PC-12. Kind of test: Neuritogenic activity in rat PC12 cells assessed as induction of neurite outgrowth at 500 nM after 3 days using Giemsa staining by microscopic analysis.
The test system of test [3] is PC-12. Briefly: Neuritogenic activity in rat PC12 cells assessed as induction of neurite outgrowth at 1 uM after 3 days using Giemsa staining by microscopic analysis.
For test [4], the system named is PC-12. Briefly: Neuritogenic activity in rat PC12 cells assessed as induction of neurite outgrowth at 2 uM after 3 days using Giemsa staining by microscopic analysis.
Test [5] deals with PC-12. Briefly: Neuritogenic activity in rat PC12 cells assessed as induction of neurite outgrowth at 20 uM after 3 days using Giemsa staining by microscopic analysis in presence of ERK1/2 inhibitor PD98059.
Test [6] concerns PC-12. Kind of test: Neuritogenic activity in rat PC12 cells assessed as induction of neurite outgrowth at 40 uM after 3 days using Giemsa staining by microscopic analysis.

Calls of active or inactive are those of the source. The rule behind the calls is not given here.

Turning to `CCOC(=O)c1c(OC)c(-c2ccc(O)c(OC)c2)c[nH]c1=O`, the outcome in the test on PC-12 [1], with PC-12 [3] and with PC-12 [4] was Active. Besides, the result in the test with PC-12 [2] and with PC-12 [5] was inactive.

As for `CCOC(=O)c1c(OC)c(-c2ccc(OC)cc2)cn(C)c1=O`, in the test with PC-12 [1], the outcome was inactive.

For `CCOC(=O)c1c(O)c(-c2ccc(O)cc2)c[nH]c1=O`, the result with PC-12 [1] was Active.

For `CCOC(=O)c1c(OC)c(-c2ccc(O)cc2)cn(C)c1=O`, in the test with PC-12 [1], the outcome was Active.

On to `CCOC(=O)c1c(OC)c(-c2ccccc2)c[nH]c1=O`, for which the outcome in the test with PC-12 [6] was inactive.

Take `CCOC(=O)c1c(OC)c(-c2ccc(O)cc2)c[nH]c1=O`: in the test with PC-12 [1], the result was Active.

As to `CCOC(=O)c1c(OC)c(-c2ccc(C(C)(C)C)cc2)c[nH]c1=O`, the result in the test with PC-12 [6] was inactive.

Turning to `CCOC(=O)c1c(OC)c(-c2ccncc2)c[nH]c1=O`, in the test with PC-12 [6], the outcome was inactive.

As to `CCOC(=O)c1c(OC)c(-c2cccnc2)c[nH]c1=O`, the outcome in the test with PC-12 [6] was inactive.

For `CCOC(=O)c1c(OC)c(-c2ccc(NC(=O)OC(C)(C)C)cc2)c[nH]c1=O`, in the test with PC-12 [6], the outcome was inactive.

Consider `COc1cc(-c2cccnc2)ccc1O`, for which the result in the test with PC-12 [1] was inactive.

Consider `CCOC(=O)c1c(OC)c(-c2ccc(F)cc2)c[nH]c1=O`, for which the outcome in the test with PC-12 [6] was inactive.

Consider `CCOC(=O)c1c(OC)c(-c2ccc(OC)cc2)c[nH]c1=O`, for which the outcome in the test on PC-12 [1] was inactive.

`CCOC(=O)c1c(OC)c(-c2ccc(N)cc2)c[nH]c1=O`: the outcome in the test with PC-12 [6] was inactive.
